Like-named read-outs stand apart in the source and are kept apart here. Square brackets hold non-standard residues; d marks the D form. Peptide text beside a SMILES is read from it. pY = N[C@@H](Cc1ccc(OP(=O)(O)O)cc1)C(=O)O
Key:
[1] = biological target: T1, DLAR D1D2 (Drosophila melanogaster, UniProt P16621); experiment: Surface Plasmon Resonance peptide binding, DLAR D1D2; conditions: two-site model, read-out: ka
T1 construct: DLAR 1448-2029; His tag (pET-15b or pET-22b); made in house; host or cells: E. coli BL21(DE3)
T1 sequence (P16621 1448-2029): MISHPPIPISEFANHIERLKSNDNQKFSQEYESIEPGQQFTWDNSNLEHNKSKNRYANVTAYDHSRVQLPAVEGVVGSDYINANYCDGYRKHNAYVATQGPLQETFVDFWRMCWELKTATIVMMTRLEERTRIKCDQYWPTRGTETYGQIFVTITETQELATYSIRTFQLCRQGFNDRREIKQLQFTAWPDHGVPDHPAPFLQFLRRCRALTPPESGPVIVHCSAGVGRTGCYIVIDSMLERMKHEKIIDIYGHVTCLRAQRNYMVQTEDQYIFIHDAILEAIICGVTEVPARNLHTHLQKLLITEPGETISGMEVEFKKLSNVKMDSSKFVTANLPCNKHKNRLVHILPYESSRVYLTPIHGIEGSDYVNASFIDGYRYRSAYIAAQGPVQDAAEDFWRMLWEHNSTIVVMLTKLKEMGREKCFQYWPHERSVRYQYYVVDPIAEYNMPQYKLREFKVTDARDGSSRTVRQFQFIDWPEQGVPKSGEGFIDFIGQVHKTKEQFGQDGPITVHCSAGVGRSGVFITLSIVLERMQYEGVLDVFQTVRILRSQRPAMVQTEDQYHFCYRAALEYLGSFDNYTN
Description: (§1) The binding of phosphotyrosine peptides to the PTP domains was studied by Surface Plasmon Resonance on a Biacore-2000 instrument (BIAcore, AB). All experiments were conducted at 25°C. DLAR PTP domains were immobilized onto carboxylated dextran CM5 chips (BIAcore AB) using the standard amine coupling procedure as recommended by the manufacturer. Binding and kinetic assays were performed in 10 mM HEPES, pH 8.0, 150 mM NaCl, 10 mM DTT and 3 mM EDTA at a flow rate of 5 µL/min. The peptides were used at concentrations ranging from 50–700 µM. Dissociation was initiated by replacing the analyte with buffer. The association and dissociation curves were monitored for 600 sec. Sensograms were analyzed with BIA-evaluation software version 2 (BIAcore AB). Sensograms for DLAR D1D2, DLAR D1HSSD2 and DLAR D1D2HSS were fitted to two-site binding equations. DLAR D1 and DLAR D2 sensograms were fitted using a single-site binding model.

[2] = biological target: T2, DLAR D1 (Drosophila melanogaster, UniProt P16621); experiment: Surface Plasmon Resonance peptide binding, DLAR D1; conditions: column first binding site, single-site model
T2 construct: DLAR 1448-1746; His tag (pET-15b or pET-22b); made in house; host or cells: E. coli BL21(DE3)
T2 sequence (P16621 1448-1746): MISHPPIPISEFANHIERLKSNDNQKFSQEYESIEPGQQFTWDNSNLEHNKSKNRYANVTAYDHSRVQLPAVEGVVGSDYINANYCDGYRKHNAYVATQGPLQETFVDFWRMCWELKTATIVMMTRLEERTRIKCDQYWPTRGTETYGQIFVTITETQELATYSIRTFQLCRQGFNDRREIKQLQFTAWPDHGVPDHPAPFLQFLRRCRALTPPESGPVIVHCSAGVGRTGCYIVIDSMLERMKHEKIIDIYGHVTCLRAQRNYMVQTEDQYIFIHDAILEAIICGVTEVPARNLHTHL
Description: as §1

[3] = biological target: T3, DLAR D2 (Drosophila melanogaster, UniProt P16621); experiment: Phosphatase assay using pNPP, DLAR D2; type: biochemical; conditions: CGH buffer pH 6.5
T3 construct: DLAR 1728-2029; His tag (pET-15b or pET-22b); made in house; host or cells: E. coli BL21(DE3)
T3 sequence (P16621 1728-2029): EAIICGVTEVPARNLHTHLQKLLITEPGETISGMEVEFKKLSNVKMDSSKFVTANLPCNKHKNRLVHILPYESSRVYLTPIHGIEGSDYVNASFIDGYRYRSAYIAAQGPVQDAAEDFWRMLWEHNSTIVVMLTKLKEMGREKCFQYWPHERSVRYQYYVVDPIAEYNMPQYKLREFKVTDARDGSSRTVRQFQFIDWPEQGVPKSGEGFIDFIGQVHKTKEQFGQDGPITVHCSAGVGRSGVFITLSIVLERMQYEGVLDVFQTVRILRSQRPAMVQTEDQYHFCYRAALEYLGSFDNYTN
Description: Phosphatase activity of the recombinant PTP domains was determined by using para-Nitrophenylphosphate (pNPP), a small molecule generic substrate, as well as phosphotyrosine containing peptides. The pNPP assay was performed as reported previously, with a modification in the buffer composition (25 mM Citrate, Glycine and HEPES (CGH), pH 6.5, 100 mM NaCl and 2 mM DTT). Phosphatase activity with the phosphotyrosine peptides was ascertained by the malachite green reaction as described for PTPs previously. Briefly, the reaction mixture comprised of 0.01 µM protein incubated with increasing concentrations of different peptides in 25 mM citrate buffer pH 6.0, 100 mM NaCl and 2 mM DTT for 15 min at 25°C. The reaction was stopped by the addition of the Biomol Green reagent (Enzo Life Sciences) and the colour developed after 20 min was quantified at 650 nm. For all the assays, kinetic constants for the steady state catalysis were obtained by fitting the reaction curves to the Michaelis-Menten equation using the nonlinear regression module of Sigma plot software (Systat Software, Inc.).

[4] = system: DLAR D1 active site cysteine to serine mutant; experiment: Phosphatase assay using pNPP, DLAR D1 active site Cys to Ser mutant; type: biochemical, Drosophila melanogaster; conditions: active site cysteine to serine in D1
Excerpt: Cosmids containing the genes encoding RPTPs DLAR and PTP99A were a kind gift from Prof. Kai Zinn (Caltech). The PTP domains of PTP99A and DLAR were PCR amplified and ligated between the NheI and XhoI restriction sites of the bacterial expression vectors pET-15b and pET-22b. The active site mutants (with the nucleophilic cysteines in the PTP domains of DLAR and PTP99A mutated to serines) were obtained by using a single primer approach. An XbaI site was incorporated in the primers to aid screening of mutants. All clones were confirmed by sequencing (Macrogen Inc.). The details of the expression constructs are compiled in Table S1 and Figure 1a.
Phosphatase activity of the recombinant PTP domains was determined by using para-Nitrophenylphosphate (pNPP), a small molecule generic substrate, as well as phosphotyrosine containing peptides. The pNPP assay was performed as reported previously, with a modification in the buffer composition (25 mM Citrate, Glycine and HEPES (CGH), pH 6.5, 100 mM NaCl and 2 mM DTT). Phosphatase activity with the phosphotyrosine peptides was ascertained by the malachite green reaction as described for PTPs previously. […] The reaction was stopped by the addition of the Biomol Green reagent (Enzo Life Sciences) and the colour developed after 20 min was quantified at 650 nm. […]

Structure (SMILES) | kon ([1]; pH 8, SPR Biacore-2000, 25°C, 10 mM HEPES pH 8.0, 150 mM NaCl, 10 mM DTT, 3 mM EDTA, peptides 50–700 µM, first binding site) [M⁻¹ s⁻¹] | kon ([1]; pH 8, SPR, 25°C, pH 8.0, second binding site) [M⁻¹ s⁻¹] | kon ([2]; SPR Biacore-2000, 25°C, 10 mM HEPES pH 8.0, 150 mM NaCl, 10 mM DTT, 3 mM EDTA, peptides 50–700 µM, read-out: ka) [M⁻¹ s⁻¹] | Kd ([2]; SPR, 25°C, pH 8.0) [µM] | PTPase activity [3] | PTPase activity [4]
CC(C)C[C@H](NC(=O)[C@H](C)NC(=O)CNC(=O)[C@H](Cc1ccc(OP(=O)(O)O)cc1)NC(=O)[C@H](CC(=O)O)NC(=O)[C@@H]1CCCN1C(=O)[C@H](CCC(=O)O)NC(=O)[C@H](C)NC(=O)[C@@H](N)[C@@H](C)O)C(=O)N[C@@H](Cc1ccc(O)cc1)C(=O)N[C@@H](CCC(=O)O)C(=O)O [Cuticle peptide] (H-TAEPD[pY]GALYE-OH) | 32.6 ± 1.57 | 16500 ± 2.3e+07 | 18.6 ± 1.46 | 94.6 ± 0.33 | – | –
O=[N+]([O-])c1ccc(OP(=O)(O)O)cc1 [pNPP, para-Nitrophenylphosphate] | – | – | – | – | no detectable activity | inactive enzyme
